Laboratory results from the NIST ThermoML archive (doi:10.1016/j.jct.2013.05.006).
Numbers after ± are expanded uncertainties.

Test: activity coefficient (dimensionless); of the first substance listed, at infinite dilution; xn = mol fraction of the nth substance listed
Conditions: 298 K; 101 kPa; Liquid; Chromatography; x1 = 0

Going from c1ccc2ccccc2c1 [naphthalene] + NC=O to c1ccc(-c2ccccc2)cc1 [biphenyl] + NC=O, the activity coefficient rises from 533 ± 63 to 1320 ± 150.

First: Clc1ccccc1Cl [1,2-dichlorobenzene] + NC=O
Second: Clc1ccccc1 [chlorobenzene] + NC=O
The activity coefficient of the first is higher: 159 ± 17 for the first, 94 ± 16 for the second.

c1ccccc1 [benzene] + NC=O and Fc1ccccc1 [fluorobenzene] + NC=O are within error of each other in activity coefficient: 53 ± 6 for the first, 54 ± 6 for the second.

First: Cc1ccccc1 [toluene] + NC=O
Second: Brc1ccccc1 [bromobenzene] + NC=O
The activity coefficient of the first is lower: 81 ± 8 for the first, 107 ± 13 for the second.
